Experimental data as given in ChEMBL document CHEMBL6071186, “Design, Synthesis, and Structural Evaluation of Acetylated Phenylthioketone Inhibitors of HDAC10” (ACS Med Chem Lett, 2024).

Experiments:
[1] = biological target: T1, Polyamine deacetylase HDAC10 (Homo sapiens) (UniProt Q969S8); details: dose 500.0 µM
T1 sequence (whole entry): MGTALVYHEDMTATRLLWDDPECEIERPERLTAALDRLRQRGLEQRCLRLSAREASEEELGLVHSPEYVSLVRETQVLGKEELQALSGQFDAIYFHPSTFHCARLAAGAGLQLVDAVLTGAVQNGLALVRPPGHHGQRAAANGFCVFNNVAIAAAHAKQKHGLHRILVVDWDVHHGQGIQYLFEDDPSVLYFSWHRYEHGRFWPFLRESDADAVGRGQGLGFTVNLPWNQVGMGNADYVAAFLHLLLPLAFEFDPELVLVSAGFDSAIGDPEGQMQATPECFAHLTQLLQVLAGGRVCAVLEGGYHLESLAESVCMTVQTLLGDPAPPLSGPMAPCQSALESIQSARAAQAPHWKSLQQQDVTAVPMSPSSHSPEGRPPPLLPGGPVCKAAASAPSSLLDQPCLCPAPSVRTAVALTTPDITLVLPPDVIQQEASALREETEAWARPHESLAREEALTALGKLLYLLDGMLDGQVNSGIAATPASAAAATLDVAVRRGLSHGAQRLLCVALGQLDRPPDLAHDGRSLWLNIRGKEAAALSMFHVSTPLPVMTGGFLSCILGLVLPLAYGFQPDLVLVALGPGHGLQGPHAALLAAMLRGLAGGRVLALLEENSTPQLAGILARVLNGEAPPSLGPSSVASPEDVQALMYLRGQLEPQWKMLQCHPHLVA
Description: Binding affinity to humanized HDAC10 (A24E to D94A residues) (unknown origin) extracted from Danio rerio assessed as thermal stability by measuring melting temperature at 500 uM by differential scanning fluorimetry analysis (Rvb = 47.8+/-0.1degreeC)

[2] = biological target: T1, Polyamine deacetylase HDAC10 (Homo sapiens); details: dose 500.0 µM; remark: listed apart in the source
Description: Binding affinity to humanized HDAC10 (A24E to D94A residues) (unknown origin) extracted from Danio rerio assessed as change in melting temperature at 500 uM by differential scanning fluorimetry analysis

CN1CCc2c(c3ccccc3n2Cc2ccc(C(=O)NO)cc2)C1
Tm [1]: 65.5 °C
ΔTm [2]: 17.7 °C
